Experimental data from patent US20250144067A1, “PERSONALIZED STARVATION THERAPY FOR CANCER” (Faeth Therapeutics, Inc., priority 2021, published 2025).
Counter-ions that a name gives are not always drawn. Peptide text beside a SMILES is read from it.

What was measured:
[1] = tested on: NCI-H292 lung cancer cells; test: FDA drug screening, complete media vs cholesterol-free media without statin (TABLE 1); type: cell-based, human
[2] = tested on: NCI-H292 lung cancer cells; test: FDA drug screening, complete media vs cholesterol-free media with simvastatin (TABLE 2); type: cell-based, human; conditions: for Cholesterol-free media + simvastatin (0.04 μM) / Complete Media: NCI-H292 cells
[3] = Complete minus Cholesterol-free, greater than 0 enhanced anti-cancer activity, about 0 neutral, below 0 antagonist
[4] = NCI-H292 cells, FDA drug library screen, cholesterol-free media without statin
[5] = NCI-H292 cells, FDA drug library screen, complete media
[6] = FDA drug library screen, cholesterol-free media with simvastatin 0.04 μM
[7] = FDA drug library screen, complete media
[8] = complete media vs cholesterol-free media + simvastatin (0.04 μM), >0 enhanced anti-cancer activity, about 0 neutral, <0 antagonist
[9] = Complete minus Cholesterol-free, >0 enhanced anti-cancer activity, about 0 neutral, <0 antagonist
[10] = NCI-H292 cells, cholesterol-free media without statin, FDA drug library screen
[11] = NCI-H292 cells, complete media, FDA drug library screen
[12] = Complete minus Cholesterol-free, greater than 0 enhanced anti-cancer activity, about 0 neutral, below 0 antagonists
[13] = NCI-H292 cells in cholesterol-free media without statin
[14] = NCI-H292 cells in complete media
[15] = FDA library drug in cholesterol-free media with simvastatin 0.04 μM
[16] = FDA library drug in complete media
[17] = drug in cholesterol-free media with simvastatin 0.04 μM
[18] = complete media vs cholesterol-free media + simvastatin (0.04 μM), […]
[19] = complete media minus cholesterol-free media + simvastatin, >0 enhanced anti-cancer activity, about 0 neutral, <0 antagonist
[20] = NCI-H292 cells, cholesterol-free media without statin
[21] = complete vs cholesterol-free media, greater than 0 enhanced anti-cancer activity, about 0 neutral, below 0 antagonists
[22] = cholesterol-free media with simvastatin 0.04 μM, cell growth value in FDA drug screen
[23] = complete media, cell growth value in FDA drug screen
[24] = complete vs cholesterol-free media, >0 enhanced anti-cancer activity, about 0 neutral, <0 antagonist

Molecule: O=C(Nc1nc(-c2cc(Cl)cs2)c(N2CCN(C3CCCCC3)CC2)s1)c1cnc(N2CCC(C(=O)O)CC2)c(Cl)c1 [Avatrombopag (hydrochloride)]
- Difference [1, 3]: −0.15
- Cholesterol-free [1, 4]: 0.9128
- Complete [1, 5]: 0.7673
- Cholesterol-free media + simvastatin (0.04 μM) [2, 6]: 1.18
- Complete Media [2, 7]: 1.082
- Difference [2, 8]: −0.10

Molecule: COC(=O)[C@H](c1ccccc1Cl)N1CCc2sccc2C1 [Clopidogrel]
- Difference [1, 9]: −0.02
- Cholesterol-free [1, 10]: 0.9805
- Complete [1, 11]: 0.958
- Cholesterol-free media + simvastatin (0.04 μM) ([2]; cholesterol-free media with simvastatin 0.04 μM, FDA drug library screen (TABLE 2)): 1.038
- Complete Media ([2]; complete media, FDA drug library screen (TABLE 2)): 0.969
- Difference ([2]; complete media minus cholesterol-free media + simvastatin (0.04 μM), >0 enhanced anti-cancer activity, about 0 neutral, <0 antagonist): −0.07

Molecule: C[C@H](N[C@@H](CCc1ccccc1)C(=O)O)C(=O)N1CCC[C@H]1C(=O)O.O.O [Enalaprilat (dihydrate)]
- Difference [1, 12]: −0.58
- Cholesterol-free [1, 13]: 1.525
- Complete [1, 14]: 0.949
- Cholesterol-free media + simvastatin (0.04 μM) [2, 15]: 1.635
- Complete Media [2, 16]: 1.051
- Difference [2, 8]: −0.58

Molecule: Cc1ncc(COP(=O)(O)O)c(C)c1O [4-Deoxypyridoxine 5′-phosphate]
- Cholesterol-free [1, 10]: 0.7389
- Difference ([1]; complete vs cholesterol-free media, […]): 0.41
- Cholesterol-free media + simvastatin (0.04 μM) [2, 17]: 1.284
- Complete Media ([2]; drug in complete media): 1.065
- Difference [2, 18]: −0.22

Molecule: CC1=C(/C=C/C(C)=C/C=C/C(C)=C/C(=O)O)C(C)(C)CCC1 [Retinoic acid]
- Difference [1, 12]: −0.66
- Cholesterol-free [1, 13]: 1.248
- Complete [1, 14]: 0.5841
- Cholesterol-free media + simvastatin (0.04 μM) [2, 6]: 0.9194
- Complete Media [2, 7]: 1.253
- Difference [2, 19]: 0.33

Molecule: CC1(C)O[C@@H]2[C@@H](CO[C@@]3(COS(N)(=O)=O)OC(C)(C)O[C@@H]23)O1 [Topiramate]
- Cholesterol-free [1, 20]: 1.406
- Complete ([1]; NCI-H292 cells, complete media): 0.9724
- Difference [1, 21]: −0.43
- Cholesterol-free media + simvastatin (0.04 μM) [2, 22]: 1.666
- Complete Media [2, 23]: 1.706
- Difference [2, 19]: 0.04

Molecule: C[C@@H](OC[C@@]1(c2ccccc2)CC[C@]2(CCC(=O)N2)CN1)c1cc(C(F)(F)F)cc(C(F)(F)F)c1 [Rolapitant]
- Difference [1, 9]: −0.04
- Cholesterol-free [1, 10]: 0.9892
- Complete [1, 11]: 0.9523
- Cholesterol-free media + simvastatin (0.04 μM) [2, 6]: 1.001
- Complete Media [2, 7]: 0.9304
- Difference [2, 8]: −0.07

Molecule: O=C(COc1ccc(Cl)cc1)N1CCN(Cc2ccc3c(c2)OCO3)CC1 [Fipexide]
- Difference [1, 9]: −0.02
- Cholesterol-free [1, 10]: 1.201
- Complete [1, 11]: 1.177
- Cholesterol-free media + simvastatin (0.04 μM) [2, 15]: 1.655
- Complete Media [2, 16]: 1.225
- Difference [2, 8]: −0.43

Molecule: Sisomicin (sulfate)
- Difference [1, 9]: −0.04
- Cholesterol-free [1, 10]: 0.9293
- Complete [1, 11]: 0.8918
- Cholesterol-free media + simvastatin (0.04 μM) [2, 22]: 0.697
- Complete Media [2, 23]: 0.7346
- Difference [2, 19]: 0.04

Molecule: CN(C)CCN(Cc1ccccc1)c1ccccn1 [Tripelennamine (hydrochloride)]
- Difference [1, 3]: −0.13
- Cholesterol-free [1, 4]: 1.185
- Complete [1, 5]: 1.051
- Cholesterol-free media + simvastatin (0.04 μM) [2, 15]: 1.12
- Complete Media [2, 16]: 0.8343
- Difference [2, 8]: −0.29

Molecule: CCOc1nc2cccc(C(=O)O)c2n1Cc1ccc(-c2ccccc2-c2nnn[nH]2)cc1 [Candesartan]
- Difference [1, 9]: 0.02
- Cholesterol-free [1, 10]: 0.9494
- Complete [1, 11]: 0.9741
- Cholesterol-free media + simvastatin (0.04 μM) [2, 17]: 1.101
- Complete Media ([2]; drug in complete media): 0.8684
- Difference [2, 8]: −0.23

Molecule: Prednisolone (disodium phosphate)
- Cholesterol-free [1, 20]: 1.087
- Complete ([1]; NCI-H292 cells, complete media): 0.6422
- Difference [1, 21]: −0.44
- Cholesterol-free media + simvastatin (0.04 μM) [2, 6]: 0.4379
- Complete Media [2, 7]: 0.7375
- Difference [2, 19]: 0.30

Molecule: O=C1OC2(c3ccc(O)cc3Oc3cc(O)ccc32)c2ccccc21 [Fluorescein]
- Cholesterol-free [1, 20]: 1.153
- Complete ([1]; NCI-H292 cells, complete media): 0.6958
- Difference [1, 21]: −0.46
- Cholesterol-free media + simvastatin (0.04 μM) [2, 17]: 1.054
- Complete Media ([2]; drug in complete media): 0.8464
- Difference [2, 8]: −0.21

Molecule: CC#CC(=O)N1CCC[C@H]1c1nc(-c2ccc(C(=O)Nc3ccccn3)cc2)c2c(N)nccn12 [Acalabrutinib]
- Cholesterol-free [1, 10]: 0.7449
- Complete [1, 11]: 0.989
- Difference [1, 24]: 0.24
- Cholesterol-free media + simvastatin (0.04 μM) [2, 6]: 1.302
- Complete Media [2, 7]: 1.618
- Difference [2, 19]: 0.32

Molecule: COc1cc(/C=C/C(=O)O)ccc1O [Ferulic acid]
- Difference [1, 9]: −0.23
- Cholesterol-free [1, 20]: 1.087
- Complete ([1]; NCI-H292 cells, complete media): 0.8516
- Cholesterol-free media + simvastatin (0.04 μM) [2, 15]: 1.055
- Complete Media [2, 16]: 0.7118
- Difference [2, 8]: −0.34

Molecule: Nc1nc2ccc(OC(F)(F)F)cc2s1 [Riluzole]
- Difference [1, 9]: 0.02
- Cholesterol-free [1, 10]: 1.015
- Complete [1, 11]: 1.033
- Cholesterol-free media + simvastatin (0.04 μM) [2, 6]: 0.9966
- Complete Media [2, 7]: 1.259
- Difference [2, 19]: 0.26

Molecule: Cc1cc(C)cc(OCC2CNC(=O)O2)c1 (centres unmarked) [Metaxalone]
- Difference [1, 12]: −0.49
- Cholesterol-free [1, 13]: 1.567
- Complete [1, 14]: 1.078
- Cholesterol-free media + simvastatin (0.04 μM) [2, 15]: 1.3
- Complete Media [2, 16]: 1.014
- Difference [2, 8]: −0.29

Molecule: CCNC(=O)[C@@H]1CCCN1C(=O)[C@H](CCCNC(=N)N)NC(=O)[C@H](CC(C)C)NC(=O)CNC(=O)[C@H](Cc1ccc(O)cc1)NC(=O)[C@H](CO)NC(=O)[C@H](Cc1c[nH]c2ccccc12)NC(=O)[C@H](Cc1c[nH]cn1)NC(=O)[C@@H]1CCC(=O)N1 [Fertirelin] (HELM PEPTIDE1{[Glp].H.W.S.Y.G.L.R.P.[CCN[*:1]]}$$$$V2.0)
- Difference ([1]; Complete minus Cholesterol-free, […]): −0.12
- Cholesterol-free [1, 4]: 0.9867
- Complete [1, 5]: 0.8642
- Cholesterol-free media + simvastatin (0.04 μM) [2, 17]: 1.367
- Complete Media ([2]; drug in complete media): 1.138
- Difference [2, 18]: −0.23

Molecule: CN(C)C/C=C/C(=O)Nc1cc2c(Nc3ccc(F)c(Cl)c3)ncnc2cc1O[C@H]1CCOC1 [Afatinib]
- Difference [1, 9]: 0.00
- Cholesterol-free [1, 10]: 0.02665
- Complete [1, 11]: 0.0309
- Cholesterol-free media + simvastatin (0.04 μM) [2, 22]: 0.1756
- Complete Media [2, 23]: 0.2197
- Difference [2, 19]: 0.04

Molecule: CCOc1ccccc1OCCN[C@H](C)Cc1ccc(OC)c(S(N)(=O)=O)c1 [Tamsulosin]
- Difference [1, 3]: −0.14
- Cholesterol-free [1, 4]: 1.006
- Complete [1, 5]: 0.8695
- Cholesterol-free media + simvastatin (0.04 μM) [2, 17]: 1.361
- Complete Media ([2]; drug in complete media): 1.178
- Difference [2, 8]: −0.18

Molecule: Dabigatran etexilate (mesylate)
- Difference [1, 9]: −0.23
- Cholesterol-free [1, 20]: 1.215
- Complete ([1]; NCI-H292 cells, complete media): 0.9831
- Cholesterol-free media + simvastatin (0.04 μM) [2, 6]: 1.092
- Complete Media [2, 7]: 0.9893
- Difference [2, 8]: −0.10

Molecule: CO[C@@]1(NC(=O)CSCC#N)C(=O)N2C(C(=O)O)=C(CSc3nnnn3C)CS[C@@H]21 [Cefmetazole (sodium)]
- Cholesterol-free [1, 10]: 0.6502
- Complete [1, 11]: 0.9897
- Difference [1, 24]: 0.34
- Cholesterol-free media + simvastatin (0.04 μM) [2, 6]: 1.32
- Complete Media [2, 7]: 1.164
- Difference [2, 8]: −0.16

Molecule: CC(=O)OCC(=O)[C@@]1(O)[C@H](C)C[C@H]2[C@@H]3CCC4=CC(=O)C=C[C@]4(C)[C@@]3(F)[C@@H](O)C[C@@]21C [Dexamethasone acetate]
- Difference [1, 9]: −0.04
- Cholesterol-free [1, 10]: 0.6815
- Complete [1, 11]: 0.6403
- Cholesterol-free media + simvastatin (0.04 μM) [2, 6]: 0.9553
- Complete Media [2, 7]: 0.8728
- Difference [2, 8]: −0.08
